The results in this text go back to patent publication US4454065A, “Oligopeptide prodrugs” (SmithKline Beckman Corporation, priority 1983, dated 1984).

For data set [1], the system named is Candida albicans. The data set can be described thus: Disk diffusion method, fungi (Method/Test A). Type of data set: cell-based. The note with it: for zone (Test A, disk diffusion; quantity not given): C. albicans B-311; for zone size: C. albicans. As for the experimental part: (§1) A. Fungi (Disk diffusion method):
(§2) Candida albicans strains B-311 and BC 759, obtained from Smith Kline and French Laboratory Culture Collection were grown in a trypticase soy broth at 28° for 7 hours. The seeded plates, with this medium containing 1.5% agar, were prepared by inoculating 1 ml of the inoculum in 1 l. of yeast-carbon base medium, containing 200 μg/ml of lysine or glutamate as a sole source of nitrogen.
(A growth-free zone around the sample is the usual read-out of agar diffusion tests.)

For data set [2], the system named is C. albicans. The data set can be described thus: Minimum inhibitory concentration, two-fold broth dilution (Method/Test B). Type of data set: cell-based, Candida albicans. As to the method: (§3) B. Fungi [Minimum inhibitory […] (MIC)]:
(§4) The minimum inhibitory concentration of the test compound was determined by two-fold broth dilution tests in yeast carbon base medium, containing 200 μg/ml of sodium glutamate. The compounds were diluted from […] to 0.25 μg/ml and the test medium was inoculated with a suspension of C. albicans grown in the same medium for 15 hours at 37°. The final inoculum sizes in the tests we approximately 10^4 cfu/ml and 10^3 cfu/ml. The tubes were incubated at 37° for 24 and 48 hours and observed for inhibition.
On the technique in general: Broth dilution looks for growth in wells or tubes with falling amounts of substance.

In data set [3] the test system is representative fungal and bacterial organisms. As to the kind of experiment: Biological screen described in the utility example. Format: cell-based. The note with it: product found to be not completely deblocked. As for the experimental part:
A prototypal compound, L-alanyl-2-(5-fluorouracil-2-yl)-L-glycine, was evaluated against representative fungal and bacterial organisms.
as §1, §2, §3, §4
C. Bacteria (Disk diffusion method):
A method similar to A above but using E. coli was used which employs a M-9 medium (basic salts with ammonium ion as the nitrogen source and glucose as the carbon source).

Data set [4] deals with Fasciola hepatica. The note with it: mice, subcutaneously 15 mg/kg for eight days; compared with albendazole.
For data set [5], the system named is Caenorhabditis elegans. Particulars: concentrations of 10 and 100 μg/ml.
The test system of data set [6] is Nematospiroides dubius. Particulars: mice, subcutaneously 15 mg/kg for eight days; compared with albendazole.
Data set [7] has as its system E. coli M. 2626. As to the kind of experiment: Disk diffusion method, bacteria (Method C). The note with it: Escherichia coli. Format: cell-based. An excerpt:
C. Bacteria (Disk diffusion method): A method similar to A above but using E. coli was used which employs a M-9 medium (basic salts with ammonium ion as the nitrogen source and glucose as the carbon source).

For data set [8], the system named is hog kidney leucine aminopeptidase. As to the kind of experiment: Enzyme catalyzed warhead release (Ellman reagent, 412 nm). Particulars: pH 7.5. Type of data set: biochemical. A general note: In Ellman's method for cholinesterases, released thiocholine reacts with DTNB.
Data set [9] in a line: Stability in aqueous phosphate buffer, spontaneous warhead release (Ellman reagent, 412 nm). The note with it: for λ(412) absorbance: before enzyme. Type of data set: physicochemical. As for the experimental part: (§5) The release was maintained at a linear rate over the observation period (5 min). […] This observation is consistent with literature reports of the optimal pH necessary for the efficacy of this enzyme.
(§6) These observations were obtained by colorimetric assay, which involves the reaction between a free sulfhydryl group and 5,5'-dithio-bis(2-nitrobenzoic acid), the Ellman reagent, to produce a yellow color as follows: [drawing 12]
(§7) The peptide from Example 4 was dissolved in 4 mM of phosphate buffer solution (pH 7) containing in Ellman reagent at a level of 4 mg/ml to produce a 1 mM solution of the peptide. The resulting mixture was monitored using a spectrophotometer at a wavelength of 412 nm. To 1 ml of this solution was added 100 μg of hog kidney leucine aminopeptidase (Sigma) and the enzymatic hydrolysis was continuously monitored at 412 nm.
(§8) Reaction mixture contained 1 mM peptide, Ellman's reagent 4 mg/ml, phosphate buffer 4 mM (pH 7).

In data set [10] the test system is hog kidney leucine aminopeptidase. The data set can be described thus: Enzyme catalyzed warhead release (Ellman reagent, 412 nm). Type of data set: biochemical. The note with it: for λ(412) absorbance: enzyme added. As for the experimental part:
as §5, §6, §7, §8

For data set [11], the target named is leucine aminopeptidase (Sus scrofa, UniProt P28839). The data set can be described thus: Detector peptide as enzyme substrate, leucine aminopeptidase. Format: biochemical. An excerpt: (§9) The compounds of formula I or IA in which W is a C1-6 -alkylthio, a functionalized C1-6 -alkylthio for example a C1-6 -aminoalkylthio or a phenylthio as defined above by formula II are of particular utility for detecting protease/peptidase activity in biological systems. For example, the compounds are more sensitive chromogenic detectors of protease activity in biological liquids, such as serum, than is leucine p-nitroanilide. This utility depends on the release, by protease action, of the mercaptan, H-S-R^2, which is assayed quantitatively by colorimetry using Ellman's reagent as described in the examples.

Data set [12] has as its target aminopeptidase M (Homo sapiens, UniProt P15144). As to the kind of experiment: Detector peptide as enzyme substrate, aminopeptidase M. Type of data set: biochemical.
Excerpt: as §9

Data set [13] addresses T1, trypsin (Bos taurus, UniProt P00760).
T1 construct: gene PRSS1
T1 sequence (P00760 24-246): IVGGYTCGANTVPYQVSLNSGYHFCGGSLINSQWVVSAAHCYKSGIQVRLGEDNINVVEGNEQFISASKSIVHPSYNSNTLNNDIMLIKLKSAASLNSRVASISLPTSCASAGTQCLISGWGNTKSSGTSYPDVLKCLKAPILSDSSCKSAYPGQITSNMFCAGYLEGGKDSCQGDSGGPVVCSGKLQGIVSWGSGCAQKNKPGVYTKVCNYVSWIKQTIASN
As to the kind of experiment: Detector peptide as enzyme substrate, trypsin. Type of data set: biochemical.
Excerpt: as §9

In brackets after ≈: the same amount, converted by molar mass. Where two headings read alike, the source gives them in different places.

Chain of leucine aminopeptidase (P28839 whole entry): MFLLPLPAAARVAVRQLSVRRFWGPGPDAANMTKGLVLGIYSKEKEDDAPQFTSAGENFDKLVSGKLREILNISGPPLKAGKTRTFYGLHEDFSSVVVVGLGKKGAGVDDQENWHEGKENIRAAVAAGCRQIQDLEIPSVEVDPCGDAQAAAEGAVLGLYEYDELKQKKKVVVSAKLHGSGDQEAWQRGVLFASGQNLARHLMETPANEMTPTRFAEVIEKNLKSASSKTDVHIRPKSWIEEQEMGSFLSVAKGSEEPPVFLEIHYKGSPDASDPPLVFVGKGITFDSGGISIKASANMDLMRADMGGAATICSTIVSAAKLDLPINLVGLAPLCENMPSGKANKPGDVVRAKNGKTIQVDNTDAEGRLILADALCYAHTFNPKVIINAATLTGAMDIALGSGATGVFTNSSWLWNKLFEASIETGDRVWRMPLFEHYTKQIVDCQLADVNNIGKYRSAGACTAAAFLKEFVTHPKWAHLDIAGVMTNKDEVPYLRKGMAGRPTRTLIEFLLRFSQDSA
Chain of aminopeptidase M (P15144 whole entry, species assumed): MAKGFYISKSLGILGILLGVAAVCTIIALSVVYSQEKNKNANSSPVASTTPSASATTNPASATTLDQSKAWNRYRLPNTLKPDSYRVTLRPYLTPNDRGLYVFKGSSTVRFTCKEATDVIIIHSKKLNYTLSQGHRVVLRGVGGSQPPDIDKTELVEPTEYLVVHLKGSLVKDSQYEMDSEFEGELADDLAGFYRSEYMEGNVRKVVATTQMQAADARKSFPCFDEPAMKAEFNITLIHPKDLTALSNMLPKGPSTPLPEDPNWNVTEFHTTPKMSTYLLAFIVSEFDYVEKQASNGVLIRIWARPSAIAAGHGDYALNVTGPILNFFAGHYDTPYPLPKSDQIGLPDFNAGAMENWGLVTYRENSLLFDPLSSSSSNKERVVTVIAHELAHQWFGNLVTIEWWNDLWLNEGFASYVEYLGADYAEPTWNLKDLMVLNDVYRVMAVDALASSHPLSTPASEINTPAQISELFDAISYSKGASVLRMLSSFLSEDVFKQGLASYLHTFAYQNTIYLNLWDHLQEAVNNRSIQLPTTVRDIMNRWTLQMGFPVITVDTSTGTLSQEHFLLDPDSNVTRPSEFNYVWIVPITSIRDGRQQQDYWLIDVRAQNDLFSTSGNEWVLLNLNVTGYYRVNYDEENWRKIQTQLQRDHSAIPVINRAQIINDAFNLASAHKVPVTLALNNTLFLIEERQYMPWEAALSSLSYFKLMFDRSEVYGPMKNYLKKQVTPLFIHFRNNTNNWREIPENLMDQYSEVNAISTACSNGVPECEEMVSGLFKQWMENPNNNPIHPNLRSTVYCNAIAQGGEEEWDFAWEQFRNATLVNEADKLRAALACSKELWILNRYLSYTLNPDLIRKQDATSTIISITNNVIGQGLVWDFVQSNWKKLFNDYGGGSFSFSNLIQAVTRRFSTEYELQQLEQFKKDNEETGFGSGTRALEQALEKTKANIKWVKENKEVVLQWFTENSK

The MIC is the smallest concentration in the dilution series that meets the test's criterion for growth inhibition. In the case of `C[C@H](N)C(=O)NC(C(=O)O)n1cc(F)c(=O)[nH]c1=O` (mixture of isomers) [Example 2, L-alanyl-2-(5-fluorouracil-1-yl)-D,L-glycine], the zone (Test A, disk diffusion; quantity not given) amounted to 12 mm in data set [1] (Conc. 1.5 μg/desk, listed as L-DL); 18 mm in data set [1] (Conc. 3.0 μg/desk, listed as L-DL); 20 mm in data set [1] (Conc. 6.0 μg/desk, listed as L-DL); 20 mm in data set [1] (Conc. 12.5 μg/desk, listed as L-DL); 20 mm in [1] (Conc. 25 μg/desk, listed as L-DL). Further, the MIC amounted to 25 µg/mL in data set [2] (C. albicans strain 3153A, listed as L-DL); 25 µg/mL in [2] (C. albicans strain B 311, listed as L-DL); 6.3 µg/mL in data set [2] (C. albicans strain BC 759, listed as L-DL).

Regarding `C[C@H](N)C(=O)NC(NNS(=O)(=O)c1cc(C(=O)O)cc(C(=O)O)c1)C(=O)O` (stereo partly drawn) [Example 12, L-alanyl-2-(3,5-dicarboxy-phenylsulfohydrazino)-D,L-glycine], the “activity in the biological screen” value in data set [3] is given as “not active”.

In the case of “L-alanyl-2-(albendazole)-D,L-glycine [Example 22]”, the antiparasitic activity result is “comparable to, or greater than, albendazole” in [4] and “comparable to, or greater than, albendazole” in data set [6]. The nematostatic activity result in [5] is “nematostatic activity was demonstrated”.

The zone of inhibition is the extent of the growth-free halo in a diffusion test. Higher therefore signals wide suppression of growth. As for `O=c1[nH]cc(F)c(=O)[nH]1` [Example 5-FU, 5-fluorouracil, reference compound], the zone (Test A, disk diffusion; quantity not given) in [1] (Conc. 1.5 μg/desk) is 22 mm; in data set [1] (Conc. 3.0 μg/desk), 30 mm; in [1] (Conc. 6.0 μg/desk), 30 mm; in [1] (Conc. 12.5 μg/desk) it was 40 mm; in [1] (Conc. 25 μg/desk), 44 mm. The minimal inhibitory concentration (MIC) is 1 µg/mL (≈ 7.69 µM) in data set [2] (Candida albicans, C. albicans strain 3153A, read-out: MIC); 4 µg/mL (≈ 30.8 µM) in data set [2] (Candida albicans, C. albicans strain B 311, read-out: MIC); 1 µg/mL (≈ 7.69 µM) in data set [2] (Candida albicans, C. albicans strain BC 759, read-out: MIC). In data set [7] (conc. 1.5 μg/disk), the zone of inhibition at 1.5 µg/disc was found to be 33 mm. This compound also returned a zone of inhibition at 3 µg/disc in data set [7] (conc. 3.0 μg/disk) of 38 mm. In addition, the zone of inhibition at 6 µg/disc in data set [7] (conc. 6.0 μg/disk) was found to be 40 mm. Also, the zone of inhibition at 12.5 µg/disc in [7] (conc. 12.5 μg/disk) was 41 mm. The compound further came in with a zone of inhibition at 25 µg/disc in [7] (conc. 25.0 μg/disk) of 46 mm.

For “L-alanyl-2-(2,6-dicarboxy-pyridyl-4-)-ethylthio-D,L-glycine [Example 4]”, the “enzymatically catalyzed release rate relative to pH 7.0” value in data set [8] is reported as “twice the previous rate”. Moreover, the “Spontaneous Rate (warhead release)” value in data set [9] (1 mM peptide, phosphate buffer 4 mM pH 7, no enzyme) is recorded as 65 p moles per min. Besides, the “t 1/2 (stability)” value in data set [9] (0.2 M phosphate buffer (pH 7.0)) is ~ 5000 min. Besides, the “λ(412) absorbance” value in data set [9] (Time (sec) 0, 1 mM peptide, Ellman's reagent 4 mg/ml, phosphate buffer 4 mM pH 7) came out at 0.090; in [9] (Time (sec) 1, 1 mM peptide, phosphate buffer pH 7) it was 0.093; in [9] (Time (sec) 2, 1 mM peptide, phosphate buffer pH 7), 0.095; in data set [10] (Time (sec) 3, 1 mM peptide, phosphate buffer pH 7), 0.109; in data set [10] (Time (sec) 4) it was 0.127; in [10] (Time (sec) 5) it was 0.142. Besides, the figures for the “λ(412) absorbance” value in [10] (Time (sec) 6), in data set [10] (Time (sec) 7) and in data set [10] (Time (sec) 8) were 0.161, 0.180 and 0.199, respectively. In data set [9] (pH 7.5, compared with pH 7.0), the non-enzymatic warhead release entry is “no noticeable increase”. Also, in [10] (1 mM peptide, phosphate buffer 4 mM pH 7, 100 μg leucine aminopeptidase), the “Rate plus 100 μg enzyme (warhead release)” value was found to be 504 p moles per min. Further, in data set [10] (phosphate buffer pH 7.0, observation period 5 min), the “warhead release upon addition of Leucine Aminopeptidase” value is on record as “the warhead was released”.

`C[C@H](N)C(=O)NC(Sc1ccccc1)C(=O)O` (stereo partly drawn) [L-alanyl-L-(α-phenylthio)glycine]: the “use as enzyme substrate” value in data set [11] and in [12] was “successfully used as enzyme substrates” each time.

Turning to `C[C@H](N)C(=O)NC(C(=O)O)n1cc(F)c(=O)[nH]c1=O` (stereo partly drawn) [L-alanyl-2-(5-fluorouracil-1-yl)-D-glycine], the zone (Test A, disk diffusion; quantity not given) in data set [1] (Conc. 1.5 μg/desk, listed as L,D) was 0 mm; in data set [1] (Conc. 3.0 μg/desk, listed as L,D), 0 mm; in data set [1] (Conc. 6.0 μg/desk, listed as L,D) it was 0 mm; in [1] (Conc. 12.5 μg/desk, listed as L,D), 0 mm; in data set [1] (Conc. 25 μg/desk, listed as L,D), 0 mm. For the same compound, the zone size in data set [1] (62 μg/ml), in [1] (125 μg/ml), in data set [1] (250 μg/ml), in [1] (500 μg/ml) and in [1] (1000 μg/ml) was 0 mm throughout. The minimal inhibitory concentration (MIC) in data set [2] (C. albicans B-310, 24 hours) was > 200 µg/mL; in data set [2] (C. albicans strain 3153A, listed as L-D), > 100 µg/mL; in data set [2] (C. albicans strain B 311, listed as L-D), > 100 µg/mL; in [2] (C. albicans strain BC 759, listed as L-D), > 100 µg/mL.

As for “N-carbobenzoxy-L-alanyl-D,L-2-(3-aminopropylthio)-glycine, benzyl ester [Example 23]”, in data set [13], the substrate for trypsin result is listed as “shown to be substrates”.

For `C[C@H](N)C(=O)N[C@H](C(=O)O)n1cc(F)c(=O)[nH]c1=O` [L-alanyl-2-(5-fluorouracil-1-yl)-L-glycine], the zone (Test A, disk diffusion; quantity not given) came to 16 mm in data set [1] (Conc. 1.5 μg/desk); 20 mm in [1] (Conc. 3.0 μg/desk); 22 mm in data set [1] (Conc. 6.0 μg/desk); 26 mm in data set [1] (Conc. 12.5 μg/desk); 30 mm in data set [1] (Conc. 25 μg/desk). Moreover, the zone size in data set [1] (62 μg/ml) came out at 16 mm; in data set [1] (125 μg/ml) it was 20 mm; in [1] (250 μg/ml) it was 22 mm; in data set [1] (500 μg/ml) it was 26 mm; in data set [1] (1000 μg/ml), 30 mm. Besides, the MIC in data set [2] (C. albicans B-310, 24 hours) worked out at 12.5 µg/mL (≈ 45.6 µM); in data set [2] (C. albicans strain 3153A), 12.5 µg/mL (≈ 45.6 µM); in data set [2] (C. albicans strain B 311) it was 12.5 µg/mL (≈ 45.6 µM); in [2] (C. albicans strain BC 759), 1.6 µg/mL (≈ 5.83 µM).
